Experimental data taken from article PMC6271338, “Synthesis and Cytotoxic Evaluation of Alkoxylated Chalcones” (Molecules, 2014).
Where “and” joins values, the source holds several entries; their conditions need not be identical. Equal entries are not always repeated.

Assays:
[1] = test system: HepG2 cells; assay: In vitro anti-proliferative SRB assay, HepG2; format: cell-based, human; details: for IC50: Homo sapiens, HepG2, increasing concentrations up to 30 μM, mean ± SD of at least three independent experiments; for SI (CC50 HMLE/IC50 HepG2) / SI (CC50 L02/IC50 HepG2): selectivity index; for SI (CC50 HMLE/IC50 HepG2): HMLE vs HepG2; for SI (CC50 L02/IC50 HepG2): L02 vs HepG2
[2] = test system: HeLa cells; assay: In vitro anti-proliferative SRB assay, HeLa; format: cell-based, human; details: for IC50: Homo sapiens, HeLa, increasing concentrations up to 30 μM, mean ± SD of at least three independent experiments; for SI (CC50 HMLE/IC50 Hela) / SI (CC50 L02/IC50 Hela): selectivity index; for SI (CC50 HMLE/IC50 Hela): HMLE vs HeLa; for SI (CC50 L02/IC50 Hela): L02 vs HeLa
[3] = test system: MCF-7 cells; assay: In vitro anti-proliferative SRB assay, MCF-7; format: cell-based, human; details: for IC50: Homo sapiens, MCF7, increasing concentrations up to 30 μM, mean ± SD of at least three independent experiments; for SI (CC50 HMLE/IC50 MCF7) / SI (CC50 L02/IC50 MCF7): selectivity index; for SI (CC50 HMLE/IC50 MCF7): HMLE vs MCF7; for SI (CC50 L02/IC50 MCF7): L02 vs MCF7
[4] = test system: A549 cells; assay: In vitro anti-proliferative SRB assay, A549; format: cell-based, human; details: for IC50: Homo sapiens, A549, increasing concentrations up to 30 μM, mean ± SD of at least three independent experiments; for SI (CC50 HMLE/IC50 A549) / SI (CC50 L02/IC50 A549): selectivity index; for SI (CC50 HMLE/IC50 A549): HMLE vs A549; for SI (CC50 L02/IC50 A549): L02 vs A549
[5] = test system: SW1990 cells; assay: In vitro anti-proliferative SRB assay, SW1990; format: cell-based, human; details: for IC50: Homo sapiens, SW1990, increasing concentrations up to 30 μM, mean ± SD of at least three independent experiments; for SI (CC50 HMLE/IC50 SW1990) / SI (CC50 L02/IC50 SW1990): selectivity index; for SI (CC50 HMLE/IC50 SW1990): HMLE vs SW1990; for SI (CC50 L02/IC50 SW1990): L02 vs SW1990
[6] = Cytotoxicity (SRB) against non-tumoral HMLE cells; format: cell-based, human; details: human, HMLE cells (non-tumoral human mammary epithelial cells); increasing concentrations up to 100 μM; mean ± SD of at least three independent experiments; read-out: Normal Human Cell Lines, CC50, HMLE
[7] = test system: human mammary epithelial cell (HMLE); assay: Cytotoxicity (SRB) against non-tumoral HMLE cells; format: cell-based; details: HMLE versus the five tumoral cell lines
[8] = Cytotoxicity (SRB) against non-tumoral L02 cells; format: cell-based, human; details: human, L02 cells (non-tumoral human liver cell line); increasing concentrations up to 100 μM; mean ± SD of at least three independent experiments; read-out: Normal Human Cell Lines, CC50, L02
[9] = test system: five human cancer cell lines (HepG2, HeLa, MCF-7, A549 and SW1990); assay: In vitro anti-proliferative SRB assay, summary statements over the five-line panel; format: cell-based
Procedure: With a aim of identifying potential anticancer agents with enhanced levels of activity, as well as verifying the conclusions provided above, we took a14 as a starting compound, and then designed and synthesized a series of chalcones b1–42 bearing methoxy groups at the 2' and 6'-positions of the B-ring, whilst varying the substituents on the A-ring. The cytotoxicities of the resulting chalcones were evaluated in vitro against five human cancer cell lines and other two non-tumoral cell lines, including HepG2, HeLa, MCF-7, A549, SW1990, HMLE and L02, and the results are shown in Table 2.
HepG2 and MCF7 cells were grown in the Eagle’s minimum essential medium with Earle’s balanced salts (MEM-EBSS) medium, HeLa, A549 and L02 cells were grown in Dulbecco’s Modified Eagle Media (DMEM), SW1990 cells were grown in RPMI-1640 medium, and HMLE cell were grown in DMEM/F-12 medium. The media were supplemented with 100 U/mL penicillin, […] streptomycin and 10% fetal bovine serum (FBS), and incubated at 37 °C in a humidified atmosphere containing 5% CO2.
Cells were seeded into 96-well plates (4000 cells/well) and incubated at 37 °C in a humidified 5% CO2 atmosphere. After 24 h, the cells were treated with different concentrations of the compounds for 48 h in triplicate to generate dose-response curves. Cell viability was evaluated using the sulforhodamine B (SRB) assay as previous described. […] Etoposide was used as the positive control.

[10] = most of their in vitro IC50 values against the five human cancer lines
[11] = Homo sapiens, nearly all of the IC50 values

Structure (SMILES) | IC50 [1] [µM] | SI (CC50 HMLE/IC50 HepG2) [1] | SI (CC50 L02/IC50 HepG2) [1] | IC50 [2] [µM] | SI (CC50 HMLE/IC50 Hela) [2] | SI (CC50 L02/IC50 Hela) [2] | IC50 [3] [µM] | SI (CC50 HMLE/IC50 MCF7) [3] | SI (CC50 L02/IC50 MCF7) [3] | IC50 [4] [µM] | SI (CC50 HMLE/IC50 A549) [4] | SI (CC50 L02/IC50 A549) [4] | IC50 [5] [µM] | SI (CC50 HMLE/IC50 SW1990) [5] | SI (CC50 L02/IC50 SW1990) [5] | CC50 at 48 h [6] [µM] | SI between the CC50 in HMLE and IC50 in tumoral cells [7] | CC50 at 48 h [8] [µM] | melting point [°C] | IC50 [9, 11] [µM] | other results
COc1cccc(OC)c1/C=C/C(=O)c1ccccc1OCc1ccccc1 [b11, (E)-1-(2-(Benzyloxy>)phenyl)-3-(2,6-dimethoxyphenyl)prop-2-en-1-one] | 2.76 ± 0.04 | 7.6 | 13.9 | 3.62 ± 0.07 | 5.8 | 10.6 | 4.15 ± 0.2 | 5.1 | 9.2 | 3.63 ± 0.13 | 5.8 | 10.5 | 7.43 ± 0.56 | 2.8 | 5.2 | 21 ± 1.26 | 2–7 fold | 38.3 ± 5.63 | 94.6 to 97.9 |  | IC50 [9, 10]: < 10 µM
COc1cccc(OC)c1/C=C/C(=O)c1ccc(O)cc1O [b27, (E)-1-(2,4-Dihydroxyphenyl)-3-(2,6-dimethoxyphenyl)prop-2-en-1-one] | 17.4 ± 1.01 | >5.8 | 2.0 | 24.84 ± 0.17 | >4.0 | 1.4 | 23.1 ± 0.82 | >4.3 | 1.5 | 17.3 ± 0.76 | >5.8 | 2.1 | > 30 |  | <1.2 | > 100 | 2–7 fold | 35.5 ± 5.72 | 218.7 to 220.2 |  | 
COc1cc(C(=O)/C=C/c2c(OC)cccc2OC)ccc1O [b29, (E)-1-(4-Hydroxy-3-methoxyphenyl)-3-(2,6-dimethoxyphenyl)prop-2-en-1-one] | 0.97 ± 0.04 | 6.5 | >103.1 | 1.83 ± 0.08 | 3.4 | >54.6 | 1.79 ± 0.2 | 3.5 | >55.9 | 1.5 ± 0.07 | 4.2 | >66.7 | 3.03 ± 0.05 | 2.1 | >33.0 | 6.31 ± 0.13 | 2–7 fold and 2.1–6.5 fold | > 100 | 128.7 to 131.2 |  | fold more potent than etoposide ([4]; A549 cells, ratio of IC50 values versus etoposide): 11.5 fold; IC50 [9, 10]: < 10 µM
COc1cccc(OC)c1/C=C/C(=O)c1ccc(C#N)cc1 [b30, (E)-1-(4-Cyanophenyl)-3-(2,6-dimethoxyphenyl)prop-2-en-1-one] | 20.4 ± 0.21 | 0.6 | >4.9 | > 30 | <0.4 |  | > 30 | <0.4 |  | > 30 | <0.4 |  | > 30 | <0.4 |  | 12.6 ± 2.82 |  | > 100 | 144.3 to 145.9 | > 30 | 
COc1cccc(OC)c1/C=C/C(=O)c1ccccc1F [b31, (E)-1-(2-Fluorophenyl)-3-(2,6-dimethoxyphenyl)prop-2-en-1-one] | 18 ± 0.88 | >5.6 | >5.6 | 23.3 ± 0.42 | >4.3 | >4.3 | 23.5 ± 0.98 | >4.3 | >4.3 | 27.4 ± 0.67 | >3.6 | >3.6 | > 30 |  |  | > 100 | 2–7 fold | > 100 | 66.6 to 68.1 |  | 
COc1cccc(OC)c1/C=C/C(=O)c1cccc([N+](=O)[O-])c1 [b39, (E)-1-(3-Nitrophenyl)-3-(2,6-dimethoxyphenyl)prop-2-en-1-one] | > 30 |  |  | > 30 |  |  | > 30 |  |  | > 30 |  |  | > 30 |  |  | > 100 |  | > 100 | 172.3 to 173.7 | > 30 | 
COc1cccc(OC)c1/C=C/C(=O)c1ccc([N+](=O)[O-])cc1 [b40, (E)-1-(4-Nitrophenyl)-3-(2,6-dimethoxyphenyl)prop-2-en-1-one] | > 30 |  |  | > 30 |  |  | > 30 |  |  | > 30 |  |  | > 30 |  |  | > 100 |  | > 100 | 147.3 to 148.6 | > 30 | 
COc1cccc(OC)c1/C=C/C(=O)c1cccc(C(F)(F)F)c1 [b41, (E)-1-(3-(Trifluoromethyl)phenyl)-3-(2,6-dimethoxyphenyl)prop-2-en-1-one] | 24.4 ± 5.87 | >4.1 | >4.1 | 29.1 ± 3.06 | >3.4 | >3.4 | > 30 |  |  | > 30 |  |  | > 30 |  |  | > 100 |  | > 100 | 145.3 to 146.7 | > 30 | 
COc1cccc(OC)c1/C=C/C(=O)c1cc(C(F)(F)F)cc(C(F)(F)F)c1 [b42, (E)-1-(3,5-bis(Trifluoromethyl)phenyl)-3-(2,6-dimethoxyphenyl)prop-2-en-1-one] | > 30 |  |  | > 30 |  |  | > 30 |  |  | > 30 |  |  | > 30 |  |  | > 100 |  | > 100 | 126.5 to 127.8 | > 30 | 
